By pKa is commonly meant the negative logarithm of the acid dissociation constant.

The text below walks through data of US8008088B2, “SMMR (small molecule metabolite reporters) for use as in vivo glucose biosensors” (Masimo Laboratories, Inc., priority 2003, dated 2011).

Like-named read-outs stand apart in the source and are kept apart here.

A short description of data set [1]: Fluorescence and absorption response of boronic acid reporters to glucose in buffer solution (in vitro). Particulars: for rise in fluorescence intensity on addition of glucose: glucose changed from zero to 300 mg/dL.
Another data set has as its system PHK cells. Nature of the data set: In-vitro detection in PHK cells loaded with reporter, two-photon fluorescent imaging. The data set is classed as cell-based. To be noted: reporter 50 micromolar; glucose increased to 300 mg/dl; EM 440 nm, excitation (2P) 705 nm. The method, then:
PHK cells were loaded with AF-327d reporter, at 50 micromolar concentration, in buffer. Fluorescence was measured using a two-photon fluorescent imaging system at approximately EM 440 nm, and excitation at (2P) 705 nm. Pictures taken 10 minutes apart show a slight change in fluorescence intensity upon increasing the glucose concentration to 300 mg/dl in the cell buffer medium. This is seen clearly, as a 20% decrease in time course of fluorescence.

A short description of data set [2]: Glucose response rate in stirred cuvette, pH 8 phosphate buffer. Particulars: 100 μL of 300 mg/dL glucose added; monitored every 15 seconds; ex 340 nm, em 440 nm. As to the method:
Arg-327 unprotected batches were prepared. One batch was supplied as a yellow powder and the other as a concentrated solution in deuterated methanol. A small sample of these materials was taken and dissolved in 3 ml of pH 8 phosphate buffer. The fluorescence of these materials was excited at 340 nm and the emission monitored at 440 nm. The fluorescence was monitored every 15 seconds in a stirred cuvette. After about 3 minutes 100 μL of 300 mg/dL glucose in pH 8 buffer was added. […] Similar results were obtained for both samples.

Data set [3] is described as follows: pH dependency of esculetin spectra (pKa determination). Format: physicochemical. From the text:
The intensity of the fluorescence varies with pH but not the emission wavelength. The absorption spectrum did change with pH, implying the molecule could be used ratiometrically to measure pH using one monitoring wavelength and two excitation wavelengths. The relevant spectra are shown here together with a plot of absorption ratio as a function of pH (FIG. 45).

Data set [4] can be described thus: Absorption and emission spectra of fluorescein and BeXan (Table 4). Format: physicochemical. The text has this: The configuration of the dye is strongly influenced by the nature of the heteroatom substitution. The structure of the dye responsible for the absorption may be estimated by consideration of the photophysical properties of related compounds and calculations on them. For example comparison of fluorescein and BeXan type dyes are shown in FIGS. 21a and 21b, with structures shown in Schemes 11 and 12, respectively.

The conditions of data set [5]: hydroxyl group at position 3; cited from earlier work.
Setting [6] is: protonated, first (high energy) band.
Where [7] appears, read: protonated, second (low energy) band.

Turning to `O=C(Nc1ccc2c(C(F)(F)F)cc(=O)oc2c1)c1ccc(B(O)O)cc1` [AF-327d], in data set [1], the “fluorescence emission (em)” value is 440 nm, the “fluorescence excitation (ex)” value is listed as 340 nm, the “long wavelength absorption maximum” value was 333 nm and the “response to glucose in vitro (in words)” value is “stronger response to glucose than other published compounds”. In addition, the “rise in fluorescence intensity on addition of glucose” value in data set [1] is on record as 60%. Moreover, in data set [1] (as a function of glucose concentration), the “change of absorption spectrum at the excitation wavelength” value is on record as “less than 10%”. In addition, the Emission Wavelength in data set [1] (with and without added glucose at pH=7) worked out at 440 nm. In the data set with PHK cells, the “decrease in time course of fluorescence” value is 20%. In data set [2], the “glucose response rate (fluorescence versus time)” value is on record as “increased immediately”.

Turning to `O=C(Nc1ccc([N+](=O)[O-])cc1)c1ccc(B(O)O)cc1` [AF-339], the “response to glucose in vitro (in words)” value in data set [1] is “weaker than AF-327”.

`O=C(/C=C/c1ccc(B(O)O)cc1)c1cc2ccccc2oc1=O` [AF-343]: the “response to glucose in vitro (in words)” value in data set [1] is “No fluorescence or glucose effect”.

For `O=C(Nc1ccc2oc(=O)c3ccccc3c2c1)c1ccc(B(O)O)cc1` [AF-345], in data set [1], the “fluorescence emission (em)” value worked out at 435 nm, the “fluorescence excitation (ex)” value stood at 330 nm and the “rise in fluorescence intensity on addition of glucose” value stood at 30%.

Take `O=c1ccc2cc(O)c(O)cc2o1` [esculetin, 6,7 dihydroxycoumarin]: the pKa in data set [3] worked out at 7.5.

On to fluorescein, for which, in data set [4], the “Difference in energy of protonated absorption bands” value worked out at 3.6 kcal/mol, the “Stokes shift for deprotonated bands” value was 4.1 kcal/mol and the “Stokes shift for protonated bands” value turned out to be 3.8 kcal/mol. In data set [4] (Deprotonated band), the “Band position relative to the high-energy protonated absorption band, Absorption” value came out at 5.7 kcal/mol and the “Band position relative to the high-energy protonated absorption band, Emission” value came to 9.8 kcal/mol. Moreover, in data set [4] (High energy protonated band), the “Band position relative to the high-energy protonated absorption band, Absorption” value is recorded as 0 kcal/mol and the “Band position relative to the high-energy protonated absorption band, Emission” value is 7.4 kcal/mol. For the same compound, in data set [4] (Low energy protonated band), the “Band position relative to the high-energy protonated absorption band, Absorption” value worked out at 3.6 kcal/mol and the “Band position relative to the high-energy protonated absorption band, Emission” value came to 9.9 kcal/mol. Moreover, in data set [4] (deprotonated), the “Absorption Energy” value was determined as 57.1 kcal/mol, the “Absorption Wavelength” value was 501 nm, the “Emission Energy” value worked out at 53 kcal/mol and the “Emission Wavelength” value stood at 540 nm. In data set [4] (setting [6]), the “Absorption Energy” value worked out at 62.8 kcal/mol, the “Absorption Wavelength” value worked out at 455 nm, the “Emission Energy” value stood at 55.4 kcal/mol and the “Emission Wavelength” value was 516 nm. In addition, in data set [4] (setting [7]), the “Absorption Energy” value is recorded as 59.2 kcal/mol, the “Absorption Wavelength” value was 483 nm, the “Emission Energy” value came to 52.9 kcal/mol and the “Emission Wavelength” value stood at 541 nm. In addition, the pKa in data set [5] was 6.4.
